According to ChEMBL document CHEMBL4732124 (Eur J Med Chem, 2021):

test system: HepG2; experiment: Antiproliferative activity against human HepG2 cells assessed as cell viability at 10 uM after 48 hrs by MTT assay relative to control; format: functional; settings: read-out: Activity

Row | SMILES | viability at 10 µM [%]
1 | CNC(=O)c1cc(-n2ccc3cc(NC(=O)Nc4ccc(F)c(C(F)(F)F)c4)ccc32)ccn1 | 67
2 | CNC(=O)c1cc(-n2ccc3cc(NC(=O)c4ccccc4)ccc32)ccn1 | 99
3 | CNC(=O)c1cc(-n2ccc3cc(NC(=O)c4cc(C(F)(F)F)cc(C(F)(F)F)c4)ccc32)ccn1 | 90
4 | CNC(=O)c1cc(-n2ccc3cc(NS(=O)(=O)c4ccc(Cl)c(C(F)(F)F)c4)ccc32)ccn1 | 97
5 | CNC(=O)c1cc(-n2ccc3cc(NC(=O)Nc4cccc(C(F)(F)F)c4)ccc32)ccn1 | 76
6 | CNC(=O)c1cc(-n2ccc3cc(NC(=O)c4ccc(Cl)c(Cl)c4)ccc32)ccn1 | 80
7 | CNC(=O)c1cc(-n2ccc3cc(NC(=S)Nc4cc(C(F)(F)F)cc(C(F)(F)F)c4)ccc32)ccn1 | 53
8 | CNC(=O)c1cc(-n2ccc3cc(NC(=O)c4ccc(Cl)c(C(F)(F)F)c4)ccc32)ccn1 | 32
9 | CNC(=O)c1cc(-n2ccc3cc(NC(=O)Nc4ccc(Cl)c(Cl)c4)ccc32)ccn1 | 57
10 | CNC(=O)c1cc(-n2ccc3cc(NS(=O)(=O)c4cc(C(F)(F)F)cc(C(F)(F)F)c4)ccc32)ccn1 | 96
11 | CNC(=O)c1cc(-n2ccc3cc(NS(=O)(=O)c4ccccc4)ccc32)ccn1 | 98
12 | CNC(=O)c1cc(-n2ccc3cc(NC(=O)Nc4ccc(N5CCOCC5)c(C(F)(F)F)c4)ccc32)ccn1 | 47
13 | CNC(=O)c1cc(-n2ccc3cc(NC(=O)c4cccc(C(F)(F)F)c4)ccc32)ccn1 | 34

test system: Hep 3B2; experiment: Antiproliferative activity against human Hep3B cells assessed as reduction in cell viability after 48 hrs by MTT assay; format: functional, cell-based; settings: not given

Row | SMILES | IC50 [µM]
14 | CNC(=O)c1cc(-n2ccc3cc(NC(=O)Nc4ccc(Cl)c(Cl)c4)ccc32)ccn1 | 7.94

test system: HepG2; experiment: Antiproliferative activity against human HepG2 cells assessed as reduction in cell viability after 48 hrs by MTT assay; format: functional, cell-based; settings: HepG2, 48 h

Row | IC50 [µM] | SMILES
15 | 9.35 | CNC(=O)c1cc(-n2ccc3cc(NC(=O)Nc4ccc(N5CCOCC5)c(C(F)(F)F)c4)ccc32)ccn1
16 | 2.67 | CNC(=O)c1cc(-n2ccc3cc(NC(=O)c4cccc(C(F)(F)F)c4)ccc32)ccn1

test system: Hep 3B2; experiment: Antiproliferative activity against human Hep3B cells assessed as cell viability at 10 uM after 48 hrs by MTT assay relative to control; format: functional; settings: read-out: Activity

Row | SMILES | viability at 10 µM [%]
17 | CNC(=O)c1cc(-n2ccc3cc(NC(=O)Nc4ccc(F)c(C(F)(F)F)c4)ccc32)ccn1 | 49
18 | CNC(=O)c1cc(-n2ccc3cc(NC(=O)c4ccccc4)ccc32)ccn1 | 29
19 | CNC(=O)c1cc(-n2ccc3cc(NC(=O)c4cc(C(F)(F)F)cc(C(F)(F)F)c4)ccc32)ccn1 | 111
20 | CNC(=O)c1cc(-n2ccc3cc(NS(=O)(=O)c4ccc(Cl)c(C(F)(F)F)c4)ccc32)ccn1 | 92
21 | CNC(=O)c1cc(-n2ccc3cc(NC(=O)Nc4cccc(C(F)(F)F)c4)ccc32)ccn1 | 58
22 | CNC(=O)c1cc(-n2ccc3cc(NC(=O)c4ccc(Cl)c(Cl)c4)ccc32)ccn1 | 79
23 | CNC(=O)c1cc(-n2ccc3cc(NC(=S)Nc4cc(C(F)(F)F)cc(C(F)(F)F)c4)ccc32)ccn1 | 55
24 | CNC(=O)c1cc(-n2ccc3cc(NC(=O)c4ccc(Cl)c(C(F)(F)F)c4)ccc32)ccn1 | 54
25 | CNC(=O)c1cc(-n2ccc3cc(NC(=O)Nc4ccc(Cl)c(Cl)c4)ccc32)ccn1 | 46
26 | CNC(=O)c1cc(-n2ccc3cc(NS(=O)(=O)c4cc(C(F)(F)F)cc(C(F)(F)F)c4)ccc32)ccn1 | 92
27 | CNC(=O)c1cc(-n2ccc3cc(NS(=O)(=O)c4ccccc4)ccc32)ccn1 | 93
28 | CNC(=O)c1cc(-n2ccc3cc(NC(=O)Nc4ccc(N5CCOCC5)c(C(F)(F)F)c4)ccc32)ccn1 | 27
29 | CNC(=O)c1cc(-n2ccc3cc(NC(=O)c4cccc(C(F)(F)F)c4)ccc32)ccn1 | 72

test system: Huh-7; experiment: Antiproliferative activity against human Huh-7 cells assessed as reduction in cell viability after 48 hrs by MTT assay; format: functional, cell-based; settings: Huh-7, 48 h

Row | IC50 [µM] | SMILES
30 | 7.96 | CNC(=O)c1cc(-n2ccc3cc(NC(=O)Nc4ccc(Cl)c(Cl)c4)ccc32)ccn1
31 | 5.6 | CNC(=O)c1cc(-n2ccc3cc(NC(=O)Nc4ccc(N5CCOCC5)c(C(F)(F)F)c4)ccc32)ccn1

test system: WI-38; experiment: Cytotoxicity against human WI-38 cells assessed as cell viability after 48 hrs by MTT assay; format: cell-based; settings: WI-38, 48 h

Row | SMILES | IC50 [µM]
32 | CNC(=O)c1cc(-n2ccc3cc(NC(=O)Nc4ccc(Cl)c(Cl)c4)ccc32)ccn1 | 23.1
33 | CNC(=O)c1cc(-n2ccc3cc(NC(=O)Nc4ccc(N5CCOCC5)c(C(F)(F)F)c4)ccc32)ccn1 | > 30
34 | CNC(=O)c1cc(-n2ccc3cc(NC(=O)c4cccc(C(F)(F)F)c4)ccc32)ccn1 | 6.5

test system: Huh-7; experiment: Antiproliferative activity against human Huh-7 cells assessed as cell viability at 10 uM after 48 hrs by MTT assay relative to control; format: functional; settings: read-out: Activity

Row | SMILES | viability at 10 µM [%]
35 | CNC(=O)c1cc(-n2ccc3cc(NC(=O)Nc4ccc(F)c(C(F)(F)F)c4)ccc32)ccn1 | 65
36 | CNC(=O)c1cc(-n2ccc3cc(NC(=O)c4ccccc4)ccc32)ccn1 | 105
37 | CNC(=O)c1cc(-n2ccc3cc(NC(=O)c4cc(C(F)(F)F)cc(C(F)(F)F)c4)ccc32)ccn1 | 77
38 | CNC(=O)c1cc(-n2ccc3cc(NS(=O)(=O)c4ccc(Cl)c(C(F)(F)F)c4)ccc32)ccn1 | 101
39 | CNC(=O)c1cc(-n2ccc3cc(NC(=O)Nc4cccc(C(F)(F)F)c4)ccc32)ccn1 | 68
40 | CNC(=O)c1cc(-n2ccc3cc(NC(=O)c4ccc(Cl)c(Cl)c4)ccc32)ccn1 | 61
41 | CNC(=O)c1cc(-n2ccc3cc(NC(=S)Nc4cc(C(F)(F)F)cc(C(F)(F)F)c4)ccc32)ccn1 | 40
42 | CNC(=O)c1cc(-n2ccc3cc(NC(=O)c4ccc(Cl)c(C(F)(F)F)c4)ccc32)ccn1 | 42
43 | CNC(=O)c1cc(-n2ccc3cc(NC(=O)Nc4ccc(Cl)c(Cl)c4)ccc32)ccn1 | 43
44 | CNC(=O)c1cc(-n2ccc3cc(NS(=O)(=O)c4cc(C(F)(F)F)cc(C(F)(F)F)c4)ccc32)ccn1 | 98
45 | CNC(=O)c1cc(-n2ccc3cc(NS(=O)(=O)c4ccccc4)ccc32)ccn1 | 105
46 | CNC(=O)c1cc(-n2ccc3cc(NC(=O)Nc4ccc(N5CCOCC5)c(C(F)(F)F)c4)ccc32)ccn1 | 28
47 | CNC(=O)c1cc(-n2ccc3cc(NC(=O)c4cccc(C(F)(F)F)c4)ccc32)ccn1 | 77
